Literature values in US20060154930A1, “Substituted amino heterocycles as vr-1 antagonists for treating pain” (priority 2003, published 2006).

Biological target: VR1 (Rattus norvegicus, UniProt O35433)
Details: Wahl et al., Mol. Pharmacol, 59:9, 2001

Sequence of VR1 (O35433 whole entry): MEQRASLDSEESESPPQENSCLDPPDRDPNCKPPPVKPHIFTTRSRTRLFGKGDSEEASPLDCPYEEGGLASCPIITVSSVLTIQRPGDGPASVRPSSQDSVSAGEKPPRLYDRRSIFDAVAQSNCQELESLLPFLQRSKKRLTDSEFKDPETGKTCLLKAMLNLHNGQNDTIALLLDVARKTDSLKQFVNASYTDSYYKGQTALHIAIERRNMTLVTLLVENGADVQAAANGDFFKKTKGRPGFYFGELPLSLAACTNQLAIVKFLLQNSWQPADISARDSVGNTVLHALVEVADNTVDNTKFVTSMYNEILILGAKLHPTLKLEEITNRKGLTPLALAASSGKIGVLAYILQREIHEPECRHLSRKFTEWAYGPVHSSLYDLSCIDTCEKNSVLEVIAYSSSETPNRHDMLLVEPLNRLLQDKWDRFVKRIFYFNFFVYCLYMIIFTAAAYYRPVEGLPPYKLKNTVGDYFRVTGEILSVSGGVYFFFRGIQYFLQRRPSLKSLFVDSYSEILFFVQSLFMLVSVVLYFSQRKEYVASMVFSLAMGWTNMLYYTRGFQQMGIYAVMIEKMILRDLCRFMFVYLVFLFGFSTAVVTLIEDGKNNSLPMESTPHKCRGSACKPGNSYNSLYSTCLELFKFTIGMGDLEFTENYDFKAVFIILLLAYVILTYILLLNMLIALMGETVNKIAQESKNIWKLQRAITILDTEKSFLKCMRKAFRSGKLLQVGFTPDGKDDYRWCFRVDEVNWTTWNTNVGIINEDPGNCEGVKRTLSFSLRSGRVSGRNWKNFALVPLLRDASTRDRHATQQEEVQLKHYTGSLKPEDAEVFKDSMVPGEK

C=C(C)[C@]12C[C@@H](C)[C@@]34O[C@](Cc5ccccc5)(O[C@@H]1[C@@H]3C=C(COC(=O)Cc1cc(I)c(O)c(OC)c1)C[C@]1(O)C(=O)C(C)=C[C@@H]41)O2 [Iodo-resiniferatoxin]
VR1 antagonist potency (in words): nanomolar antagonist
